Some test systems named below: CAKI-1 renal; COLO 205 colon; HT29 colon; NCI-H226 lung; NCI-H23 lung; RPMI-8226 leukemia; SF-295 CNS; SW-620 colon; UACC-257 melanoma.
Common to all, as to assay: inhibition of tumour cell growth, NCI panel, 48 h

This passage reports TGI and GI50 results from PubChem BioAssay (NCI).

SMILES strings stand for the structures.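 All cell lines were grown in 96-well plates and treated with compound for 48 hours. GI50 is the concentration that inhibits growth by half. TGI is the concentration that stops growth completely.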

Take `Cc1ccc(-c2nc3ccccc3c(=O)n2NC2OC(CO)C(O)C(O)C2O)cc1` (centres undefined): the TGI in the assay on CAKI-1 renal, in the assay on COLO 205 colon, with HT29 colon, in the assay with NCI-H226 lung, in the assay on NCI-H23 lung and with RPMI-8226 leukemia was above 100 µM each time. Further, the TGI in the assay with SF-295 CNS, with SW-620 colon and in the assay on UACC-257 melanoma was above 100 µM each time.

Consider `CC[C@@]1(O)C(=O)OCc2c1cc1n(c2=O)Cc2cc3cccc(N)c3nc2-1`, for which the GI50 with COLO 205 colon is 13.9 µM; in the assay with HT29 colon it was above 100 µM; with NCI-H226 lung it was 2.57 µM; in the assay with NCI-H23 lung, 5.81 µM; in the assay with RPMI-8226 leukemia it was above 100 µM; in the assay on SF-295 CNS it was 4.04 µM. Also, the GI50 with UACC-257 melanoma is above 100 µM. The TGI was above 100 µM in the assay with COLO 205 colon; above 100 µM in the assay on HT29 colon; 27.9 µM in the assay with NCI-H226 lung; 31.5 µM with NCI-H23 lung; above 100 µM in the assay on RPMI-8226 leukemia; 23.5 µM with SF-295 CNS. Further, the TGI with UACC-257 melanoma is above 100 µM.

Turning to `Cc1cc(=O)n2c(cc3cccccc32)n1`, the TGI in the assay with CAKI-1 renal, with COLO 205 colon, in the assay with HT29 colon, in the assay on NCI-H226 lung, with NCI-H23 lung and in the assay with RPMI-8226 leukemia was above 100 µM throughout. Besides, the TGI in the assay on SF-295 CNS, with SW-620 colon and in the assay on UACC-257 melanoma was above 100 µM throughout.

Consider `C[C@H]1[C@H](C)CC[C@]2(C(=O)O)CCC3(COC(=O)/C=C/c4ccc(O)cc4)C(=CCC4[C@@]5(C)CC[C@H](O)C(C)(C)C5CC[C@]43C)[C@H]12` (some centres undefined), for which the TGI is 22.1 µM with CAKI-1 renal; 17.9 µM in the assay on COLO 205 colon; 18.6 µM in the assay on HT29 colon; 23.4 µM in the assay with NCI-H226 lung; 49.8 µM in the assay on RPMI-8226 leukemia; 13.2 µM in the assay with SF-295 CNS. Moreover, the TGI was found to be 18 µM with SW-620 colon and 31.5 µM in the assay on UACC-257 melanoma.

Take `CC(Oc1ccc2c(=O)cc(-c3ccccc3)oc2c1)C(=O)O` (centres undefined): the TGI in the assay on CAKI-1 renal, in the assay on COLO 205 colon, in the assay with HT29 colon, in the assay on NCI-H226 lung, in the assay on NCI-H23 lung and with SF-295 CNS was above 100 µM in each case. The TGI in the assay with SW-620 colon and in the assay with UACC-257 melanoma was above 100 µM throughout.

Consider `CC(=O)OC(C)(C)C[N+](=O)[O-]`, for which the TGI in the assay on CAKI-1 renal, in the assay on COLO 205 colon, with HT29 colon, in the assay with NCI-H226 lung, in the assay with NCI-H23 lung and with RPMI-8226 leukemia was above 100 µM throughout. The TGI with SF-295 CNS, in the assay with SW-620 colon and with UACC-257 melanoma was above 100 µM throughout.

For `c1ccc(N2CCN(CCCN3CCc4c([nH]c5ccccc45)C3c3cccnc3)CC2)cc1` (centres undefined), the TGI in the assay with CAKI-1 renal was above 100 µM; in the assay on COLO 205 colon, 56.2 µM; with HT29 colon, above 100 µM; in the assay on NCI-H226 lung, above 100 µM; with NCI-H23 lung, above 100 µM; with RPMI-8226 leukemia, above 100 µM. Further, the TGI in the assay on SF-295 CNS was above 100 µM; in the assay with SW-620 colon, above 100 µM; with UACC-257 melanoma, above 79.9 µM.

For `C=C1CCCC2OC(OC)CCC12` (centres undefined), the TGI with CAKI-1 renal, in the assay with COLO 205 colon, with HT29 colon, in the assay on NCI-H226 lung, in the assay on NCI-H23 lung and in the assay with RPMI-8226 leukemia was above 100 µM each time. Also, the TGI in the assay on SF-295 CNS, in the assay on SW-620 colon and in the assay with UACC-257 melanoma was above 100 µM in each case.

Turning to `O=C(CC1(O)C(=O)Nc2c(Cl)cc(Cl)cc21)c1ccc([N+](=O)[O-])cc1` (centres undefined), the TGI with CAKI-1 renal was above 100 µM; with COLO 205 colon, above 92.7 µM; in the assay on HT29 colon it was above 100 µM; with NCI-H226 lung it was above 73.3 µM; with NCI-H23 lung, above 78.9 µM; in the assay with RPMI-8226 leukemia, above 82.1 µM. Besides, the TGI was above 100 µM in the assay with SF-295 CNS, above 63 µM in the assay on SW-620 colon and above 54.3 µM in the assay with UACC-257 melanoma.

Turning to `CCCCCCCCCCCCCP(=O)(OC)OC`, the TGI was 32.7 µM in the assay on CAKI-1 renal; 34.2 µM with COLO 205 colon; 34.1 µM with HT29 colon; 35.9 µM in the assay with NCI-H226 lung; 35.6 µM in the assay with NCI-H23 lung; 50.7 µM with RPMI-8226 leukemia. The results for the TGI in the assay on SF-295 CNS, with SW-620 colon and in the assay with UACC-257 melanoma were 37.1 µM, 32.4 µM and 33.7 µM, respectively.

Regarding `O=C(CO)CC(=O)C(=O)Nc1cccc(C(F)(F)F)c1`, the TGI with CAKI-1 renal, with COLO 205 colon, in the assay on HT29 colon, in the assay on NCI-H226 lung, with NCI-H23 lung and with RPMI-8226 leukemia was above 100 µM throughout. Moreover, the TGI in the assay on SF-295 CNS, in the assay on SW-620 colon and with UACC-257 melanoma was above 100 µM in each case.

Consider `C=C(C)C1CC=C(C)C(O)([C@@]2(O)C[C@H](C(=C)C)CC=C2C)C1` (some centres undefined), for which the TGI in the assay with CAKI-1 renal was 51.8 µM; in the assay with HT29 colon it was 37.7 µM; in the assay on NCI-H23 lung, 43.3 µM; in the assay with RPMI-8226 leukemia, 48.7 µM; with SF-295 CNS it was 48.5 µM; in the assay with SW-620 colon, above 100 µM. This compound had a TGI with UACC-257 melanoma of 42.8 µM.

Regarding `CCCCCC1CC=CC(NC(=O)OCc2ccccc2)C1/C=C/CCCC1OCCO1` (centres undefined), the TGI with CAKI-1 renal, in the assay with COLO 205 colon, in the assay with HT29 colon, in the assay with NCI-H226 lung, in the assay on NCI-H23 lung and in the assay with RPMI-8226 leukemia was above 100 µM in each case. Further, the TGI in the assay on SF-295 CNS, in the assay on SW-620 colon and with UACC-257 melanoma was above 100 µM in each case.

With `CC(=O)CCn1[nH]c(=O)c(Cl)c(Cl)c1=O`, the TGI was 28.8 µM in the assay on CAKI-1 renal; above 100 µM with HT29 colon; above 100 µM in the assay with NCI-H226 lung; above 100 µM in the assay on NCI-H23 lung; above 100 µM in the assay with RPMI-8226 leukemia; above 100 µM with SF-295 CNS. The figures for the TGI with SW-620 colon and with UACC-257 melanoma were 45.3 µM and above 100 µM, respectively.

`O=C1C(c2ccccc2)=[N+]([O-])c2cc([N+](=O)[O-])ccc21`: the TGI was 36.9 µM with COLO 205 colon; 47.9 µM in the assay with HT29 colon; above 100 µM with NCI-H226 lung; above 100 µM in the assay with NCI-H23 lung; 74 µM in the assay on RPMI-8226 leukemia; above 100 µM in the assay on SF-295 CNS. Moreover, the TGI is above 100 µM in the assay with SW-620 colon and 40.5 µM in the assay with UACC-257 melanoma.
